# Measurements taken from patent publication US5741794A, “Heterocyclic sulfonamide derivatives as antagonists of PAF and angiotensin II” (British Biotech Pharmaceuticals Limited, priority 1992, dated 1998).
# Target: T1, PAF receptor (Homo sapiens, UniProt P25105)
# T1 construct: from tissue; host or cells: human platelets (platelet concentrates from a hospital blood bank), lysed platelet membranes
# Assay: Inhibition of [^3 H]-PAF Receptor Binding (human platelet plasma membrane)
# Conditions: 0.5 nM [^3 H]-PAF, 0° C., 1 hour incubation, pH 7.0
# Experimental: Inhibition of [^3 H]-PAF Receptor Binding
# The inhibition of [^3 H]-PAF binding to human platelet plasma membrane by compounds of general formula I was determined by isotopic labelling and filtration techniques. Platelet concentrates were obtained from a hospital blood bank. These platelet concentrates (500-2500 mi.) were centrifuged at 800 rpm for 10 minutes in a SORVALL RC3B centrifuge to remove the red blood cells present. (The word SORVALL is a trade mark.) The supernatant was subsequently centrifuged at 3,000 rpm in a SORVALL RC3B centrifuge to pellet the platelets present. The platelet rich pellets were resuspended in a minimum volume of buffer (150 mM NaCl, 10 mM Tris, 2 mM EDTA, pH 7.5) and layered onto Ficoll-Paque gradients, 9 ml platelet concentrate to 2 ml Ficoll, and centrifuged at 1,900 rpm for 15 minutes in a SORVALL RT6000 centrifuge. This step removes the residual red blood cells and other nonspecific material such as lymphocytes from the preparation. The platelets which form a band between the plasma and the Ficoll were removed, resuspended in the above buffer and centrifuged at 3,000 rpm for 10 minutes in a SORVALL RT6000 centrifuge. The pelleted platelets were resuspended in buffer (10 mM Tris, 5 mM MgCl2, 2 mM EDTA, pH 7.0), snap freezed in liquid N2 and allowed to thaw slowly at room temperature in order to lyse the platelets. The latter step was repeated at least 3 times to ensure proper lysis. The lysed platelets were centrifuged at 3,000 rpm for 10 minutes in a SORVALL RT6000 centrifuge and resuspended in buffer. The latter step was repeated twice in order to remove any cytoplasmic proteins which may hydrolyse the platelet activating factor (PAF) receptor. The prepared platelet membranes may be stored at -70° C. After thawing the prepared membranes were centrifuged in a SORVALL RT6000 at 3,000 rpm for 10 minutes and resuspended in assay buffer.
# The assay was conducted by preparing a series of Tris-buffered solutions of the selected antagonist of predetermined concentrations. […] Each washed residue was dried under vacuum on a sampling manifold and placed into vials containing 20 ml of OPTIPHASE MP scintillation fluid and the radioactivity counted in a liquid scintillation counter. (The word OPTIPHASE is a trade mark.) Defining the counts for total binding with antagonist from a test sample as "TBA"; the counts for total binding from the control sample C1 as "TB"; and the counts for nonspecific binding from the control sample C2 as "NSB", the percent inhibition of each test antagonist can be determined by the following equation: […]
# T1 sequence (P25105 whole entry): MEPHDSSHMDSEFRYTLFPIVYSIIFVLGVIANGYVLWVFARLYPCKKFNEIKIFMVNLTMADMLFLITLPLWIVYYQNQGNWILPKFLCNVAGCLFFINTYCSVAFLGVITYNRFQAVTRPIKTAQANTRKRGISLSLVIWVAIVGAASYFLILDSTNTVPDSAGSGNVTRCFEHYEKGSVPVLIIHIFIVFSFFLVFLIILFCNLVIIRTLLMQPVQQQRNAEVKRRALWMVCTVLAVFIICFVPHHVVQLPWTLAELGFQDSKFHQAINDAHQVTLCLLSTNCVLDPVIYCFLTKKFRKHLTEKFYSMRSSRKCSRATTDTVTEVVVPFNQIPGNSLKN
row,Structure (SMILES),IC50 [nM]
1,"CCc1nccn1Cc1ccc(S(=O)(=O)N(C)[C@@H](CC(C)C)C(=O)OC)cc1 [Example 43, N-Methyl-N-4-(1H-2-ethylimidazolylmethyl)phenylsulphonyl-L-leucine methyl ester]",5
2,"CCCCc1nc(Cl)c(CO)n1Cc1ccc(S(=O)(=O)N[C@@H](CC(C)C)C(=O)OCC)cc1 [Example 4, N-4-(1H-2-Butyl-4-chloro-5-hydroxymethylimidazolylmethyl)phenylsulphonyl-L-leucine ethyl ester]",5
3,"CCOC(=O)[C@H](CC(C)C)NS(=O)(=O)c1ccc(Cn2ccnc2-c2ccccc2)cc1 [Example 1, N-4-(1H-2-Phenylimidazolylmethyl)phenylsulphonyl-L-leucine ethyl ester]",7
4,"CCOC[C@H](CC(C)C)NS(=O)(=O)c1ccc(Cn2cnc3cccnc32)cc1 [Example 45A, N-4-(3H-Imidazo[4,5-b]pyridylmethyl)phenylsulphonyl-L-leucinyl ethyl ether]",20
